Measured values taken from patent publication US20250340701A1, “DENDRIMER-DELIVERED ALPHA-PARTICLE RADIOTHERAPY FOR TREATMENT OF GLIOBLASTOMA AND OTHER CANCERS IN THE BRAIN” (priority 2022, published 2025).

Test system: GL261 glioblastoma cells
Experiment: Colony survival measurement, GL261 glioblastoma cells
Format: cell-based, murine
Procedure: GL261 glioblastoma cells were incubated with different radioactivity concentrations of ^225Ac-DOTA dendrimer; cells were plated for colony survival measurement.
Cells, plated at 500,000 cells per well, were plated in 6-well plates and were allowed to adhere overnight before being incubated with varying concentrations of radioactivity (4.63, 9.25, 18.5, 37, 74 kBq/mL) at pH 7.4 for a duration of 6 hours. In case of the combination runs with temozolomide (TMZ), the free drug incubation at respective concentrations, was performed simultaneously with the radioactivity for a duration of 6 hours. […] Once cell colonies were observed (approximately 6 weeks for the cancer cells and approximately 3 weeks for the macrophages), the media was removed, dishes were washed with water, and the colonies were fixed and stained using 6% (w/v) glutaraldehyde and 0.05% (w/v) Crystal violet, respectively, following which they were counted using a colony counter pen. The number of colonies counted for each of the treatment groups was then normalized by the number of colonies from the control group to obtain the survival fraction, while accounting for the plating efficiency. The same procedure was used to obtain the survival fractions for free chemotherapeutic treatment, replacing the radioactivity concentrations with free chemotherapeutic concentration while incubating the cells. […]

O=C([O-])CN1CCN(CC(=O)[O-])CCN(CC(=O)[O-])CCN(CC(=O)[O-])CC1.[225Ac+3] [^225Ac-DOTA]
colony survival fraction of GL261 cells versus resting and activated BV2 macrophages (FIG. 8 left): significantly lower
GL261 colony survival fraction in the presence of TMZ versus without TMZ (TMZ incubated simultaneously for 6 hours, at 2.1-3.7 times less than its IC50, FIG. 10 left, FIG. 12): lower
